Literature values as cited in US20050276865A1, “Peroxide compounds for the prevention and treatment of sexual dysfunction in humans” (priority 2004, published 2005).

Columns and labels:
men with ED = details: injection into the corpus cavernosum (Montorsi et al. 1997)
[1] = not given; remark: listed apart in the source

| Solubility in water | Stability in aqueous medium (aqueous medium) | Compound | Men who achieved improved spontaneous erections and required less frequent injections (men with ED) [%] | Irritancy as reported ([1]; NTF Chemical Repository) | Toxicity and carcinogenicity concerns ([1]; according to many studies (Haywood et al. 1991)) |
| --- | --- | --- | --- | --- | --- |
|  |  | CCCCC[C@H](O)/C=C/[C@H]1[C@H](O)CC(=O)[C@@H]1CCCCCCC(=O)O [prostaglandin E1] | 28 |  |  |
| water-soluble | highly unstable | NC(N)=O.OO [Carbamide peroxide, carbamide peroxide] |  | irritant | unfounded |
